Data on 12 substances can be found in PMC2192852 (The Journal of Experimental Medicine, 1996).

Where no end group is shown, it is not given here. [ ]: non-standard residue; d: D form. Abu = CC[C@H](N)C(=O)O Some results are limits rather than exact numbers.

One test relates to 3.L2 TCR. As to the kind of experiment: T cell hybridoma agonist assay: IL-2 production by the 3.L2.12 hybridoma. The class given is cell-based. Particulars: Fig. 6, single agonist assay, representative of at least three experiments.
With “GKKVITAFNEGLK [Hb(64-76), reference compound]”, the “Concentration at which peptide is active (IL-2 production)” value came out at 0.01 µM.

Another test deals with 3.L2 TCR.
Experiment: not given
The class given is cell-based. The settings on record: Fig. 3; CH27 prepulsed with 0.1 µM Hb(64-76).
With GKKVITAFDEGLK [D72], the “Concentration at which slight inhibition of the 3.L2.12 response was seen” value (“Concentration at which slight inhibition” below) is recorded as over 100 µM. In the case of GKKVITAFMEGLK [M72], the “Concentration at which slight inhibition” value was over 100 µM. For the substance GKKVITAFYEGLK [Y72], the “Concentration at which slight inhibition” value is recorded as over 100 µM.

The next test relates to CH27 B cell lymphoma.
Experiment: not given
The test is classed as cell-based. Particulars: Fig. 4; from EC40 in apoptosis assay relative to wild-type peptide.
Consider GKKVITAFCEGLK [C72], for which the “Relative Activity (Hb(64-76) arbitrarily assigned 100)” value was 2. For the substance “GKKVITAFNEGLK [Hb(64-76), reference compound]”, the “Relative Activity (Hb(64-76) arbitrarily assigned 100)” value was found to be 100. Same read-out and setting: the result for GKKVITAFTEGLK [T72] reads 2; that for GKKVITAFVEGLK [V72], 2; that for GKKVITAF[Abu]EGLK [Abu72], 5.

Staying with this test, now noted: Fig. 5; 3.L2 clone, 24 h.
GKKVITAFEEGLK [E72]: the “Induction of apoptosis of CH27” value is “negative”.

With GKKVITAFGEGLK [G72], the “Induction of apoptosis of CH27” value was “did not induce any apoptosis”.

On to GKKVITAFLEGLK [L72], for which the “Induction of apoptosis of CH27” value is recorded as “did not induce any apoptosis”. On the same count and under the same terms, the result for GKKVITAFSEGLK [$72] reads “did not induce any apoptosis”.
